Measured values published in patent US20200080052A1, “METHOD OF REDUCING CHROMOSOME SEGREGATION ERROR IN CELLS OF THE EARLY EMBRYO” (CENTRE HOSPITALIER DE L'UNIVERSITÉ DE MONTRÉAL, priority 2018, published 2020).

Experiments:
mouse embryos [1] = assay: Culture to blastocyst and immunofluorescence analysis (development, cell numbers, micronuclei per cell); format: cell-based; conditions: for micronuclei per cell in blastocyst: 2-cell stage to blastocyst, controls 0.022, P<0.05; for number of micronuclei compared to controls: P<0.01
Protocol: (§1) Embryo collection, culture and chemical treatments. All experiments were approved by the Centre de Recherche du Centre Hospitalier de l'Université de Montréal (CRCHUM) Comité Institutionnel de Protection des Animaux (CIPA). Two-cell embryos were obtained from superovulated 2-3-month-old CD-1 female mice mated with CD-1 males. Embryos were collected in M2 media and cultured in KSOM media drops covered in mineral oil at 37° C. in 5% CO2. For chemical treatments, media was supplemented with the following compounds: AZ3146 (20 μM), GSK923295 (various concentrations), nocodazole (various concentrations), Cytochalasin B (5 μg/ml), MG132 (25 μM), proTAME (various concentrations). All drug stocks are dissolved in DMSO. For experiments involving proTAME, embryos were cultured without oil in 500 μL of media in 4-well plates.
(§2) Z-stack images of embryos (˜50 μm) with step size 2 μm were obtained at a time interval of 30 sec for experiments concerning H2BRFP only, 2 min for H2B:RFP-GAP43:GFP, and 3 min H2B:RFP-Mad1:EGFP experiments. For live-cell experiments at two-cells, eight cell, morula and blastocyst, imaging was started at ˜48 h, 72 h, 84 h and ˜96 h post-hCG administration and mating, respectively. For immunofluorescence embryos were fixed in 2% PFA in PBS (20 min) and permeabilised in 0.25% Triton™ X-100 in PBS (10 min), for Mad2 immunofluorescence embryos were fixed for 15 min in PHEM buffer containing 2% PFA and 0.05% Triton™ X-100, and permeabilised in 0.05% Triton™ X in PHEM buffer for 15 min. Blocking was performed in 3% bovine serum albumin in PBS, for 1 hr at 37° C. or overnight at 4° C. Primary antibodies used were rabbit anti-Mad2 (1:300), mouse anti-alpha-Tubulin (1:1000), anti-rabbit and anti-mouse AlexaFluor secondaries were used at 1:1000 dilution. Alexa-555-Phalloidin (1:300) and Hoechst (1:1000) were used to visualize F-actin and DNA, respectively. Briefly, immunofluorescence confocal imaging was performed on a Leica™ SP8 microscope using a 63×1.4 NA oil objective lens, using a 1.5 μm optical section and acquiring Z-stacks with a step size of 1.5 μm, described in more detail in (Vázquez-Diez et al., 2018). In fixed-cell experiments involving GSK923295 and nocodazole embryos were exposed from the 8-cell stage, ˜72 h post-hCG and mating for ˜16 h and immediately fixed. Blastocyst immunofluorescence analysis was performed at late blastocyst stage, ˜120 h post-hCG.
(§3) All image analysis was performed using Fiji software. Time-lapse Z-stacks were examined to determine mitosis duration and identify chromosome alignment and segregation errors. Spindle length measurements were performed measuring the distance between spindle poles, using Pythagoras' theorem where spindle poles were located on different Z-slices. Mad2 Immunofluorescence was quantified by subtracting nuclear envelope and background maximum grey values. To calculate cell volume for each cell at metaphase, areas delineated by the cell membrane (GAP43:GFP signal) were manually traced and measured at each Z-slice, the sum of the areas was multiplied by the step size (2 μm). All data analysis was performed using GraphPad™ Prism, statistical test used were accordingly noted in figures, α=0.05.

mouse embryos [2] = assay: Live imaging of H2B:RFP and Mad1:EGFP-expressing embryos; format: cell-based; conditions: 500 nM GSK923295
Protocol: (§4) All micromanipulations were performed on a Leica™ DM14000 inverted microscope fitted with Narashige micromanipulators. […] Embryos where thoroughly washed in over a dozen drops of M2 media prior to transfer and incubation in equilibrated KSOM medium for at least 2 hours prior to imaging to allow them to recover from the cytoplasmic removal procedure. Microinjections were performed as described previously (Nakagawa and FitzHarris, 2016; Vázquez-Diez and FitzHarris, 2018; Vázquez-Diez et al., 2016). cRNA was synthesized using mMessenger Machine kit (Ambion) as previously (Nakagawa et al., 2017; Vázquez-Diez et al., 2018), from the following plasmids; pRN4-H2B:RFP, psC2-GAP43:GFP, MajSatTALE:mClover (pTALYM3B15)(Miyanari et al., 2013).
All imaging was performed on a Leica™ SP8 confocal microscope with HyD detectors. For live imaging embryos were placed in a heated top-stage incubator with CO2 supply and imaged with a 20×0.75 NA objective as previously described (Vázquez-Diez et al., 2016). All imaging was performed in ˜2 μL drops under mineral oil, for experiments involving proTAME, embryos were cultured in Ibidi micro-insert wells mounted on a glass-bottom dish with distilled water and the inventors' setup was modified to provide humidified CO2 gas supply, previously described in extensive detail (Vázquez-Diez et al., 2018). […]

mouse embryos [3] = assay: Fixed-cell analysis of embryos after ~16 h exposure from the 8-cell stage (mitotic index, misaligned chromosomes, Mad2); format: cell-based; conditions: for metaphase cells with multiple misaligned chromosomes: morulae, 16 hour exposure
Protocol: as §1, §2, §3

mouse embryos [4] = assay: Live imaging of chromosome segregation dynamics in H2B:RFP-expressing embryos; format: cell-based; conditions: for change in mitosis duration: 10 nM nocodazole
Protocol: as §1
All imaging was performed on a Leica™ SP8 confocal microscope with HyD detectors. For live imaging embryos were placed in a heated top-stage incubator with CO2 supply and imaged with a 20×0.75 NA objective as previously described (Vázquez-Diez et al., 2016). All imaging was performed in ˜2 μL drops under mineral oil, for experiments involving proTAME, embryos were cultured in Ibidi micro-insert wells mounted on a glass-bottom dish with distilled water and the inventors' setup was modified to provide humidified CO2 gas supply, previously described in extensive detail (Vázquez-Diez et al., 2018).
as §2, §3

mouse embryos [5] = assay: Cytoplasmic removal and live imaging of H2B:RFP-GAP43:GFP embryos (mitosis duration vs cell volume); format: cell-based; conditions: 10 nM nocodazole, un-manipulated or cytoplasmically reduced
Protocol: as §4
All imaging was performed on a Leica™ SP8 confocal microscope with HyD detectors. For live imaging embryos were placed in a heated top-stage incubator with CO2 supply and imaged with a 20×0.75 NA objective as previously described (Vázquez-Diez et al., 2016). […]
All image analysis was performed using Fiji software. […] Mad2 Immunofluorescence was quantified by subtracting nuclear envelope and background maximum grey values. To calculate cell volume for each cell at metaphase, areas delineated by the cell membrane (GAP43:GFP signal) were manually traced and measured at each Z-slice, the sum of the areas was multiplied by the step size (2 μm). […]

oocytes = assay: Polar body extrusion (PBE) of meiosis-I in microinjected oocytes; format: cell-based, mouse; conditions: oocytes microinjected with Mad2 MO vs Control MO
[6] = 500 nM GSK923295, 8-16 cell transition
[7] = proTAME 0.01 nM-100 nM from the 2-cell stage

Compound: Cc1ncc([N+](=O)[O-])n1CCOC(=O)NC(Nc1ncccn1)C(Cl)(Cl)Cl (stereo not drawn) [APCin]
- micronuclei (mouse embryos [1]; APCin 10 μM): reduction in micronuclei

Compound: CC(C)Oc1ccc(C(=O)N[C@H](CNC(=O)CN(C)C)Cc2ccc(-c3cn4cccc([C@H](C)O)c4n3)cc2)cc1Cl [GSK923295]
- misaligned chromosomes at anaphase onset harbouring Mad1:GFP at kinetochores (mouse embryos [2]): 80%
- misaligned chromosomes at anaphase onset (mean) (mouse embryos [2]; H2B:RFP and Mad1:EGFP-expressing embryos): 3.5±0.4 per cell
- mitotic index (mouse embryos [3]; 500 nM GSK923295): 23%
- metaphase cells with multiple misaligned chromosomes (mouse embryos [3]; 500 nM GSK923295): 93%
- mitotic arrest with simultaneous nocodazole (mouse embryos [3]; 1 μM nocodazole + 500 nM GSK923295, 16 hr): mounted a robust mitotic arrest
- mitotic index (mouse embryos [3]; 5 μM GSK923295): 12%
- metaphase cells with multiple misaligned chromosomes (mouse embryos [3]; 5 μM GSK923295): 100%
- number of severely misaligned chromosomes at anaphase onset (span, all cases) (mouse embryos [4]; [6]): at least one, and as many as nine
- severely misaligned chromosomes at anaphase onset (mean) (mouse embryos [4]; [6]): 3.6±0.3 per cell
- NEBD to metaphase and metaphase to anaphase times (mouse embryos [4]; 500 nM GSK, eight- to sixteen-cell division): extended

Compound: COC(=O)Nc1nc2ccc(C(=O)c3cccs3)cc2[nH]1 [nocodazole]
- mitotic index (mouse embryos [3]; 100 nM nocodazole, 16-hour exposure): 40%
- mitotic index (mouse embryos [3]; 1 μM nocodazole, 16-hour exposure): 95%
- Mad2 at kinetochores (mouse embryos [3]; nocodazole-treated cells): Mad2 was evident at kinetochores
- change in mitosis duration (mouse embryos [4]; blastocysts (~32-64 cell stage)): prolonged mitosis appreciably
- change in mitosis duration (mouse embryos [4]; morulae (8-16 cell stage)): only a minimal extension of mitosis
- change in mitosis duration (mouse embryos [4]; two-cell stage): prolonged mitosis appreciably
- Anaphase lagging chromosomes (mouse embryos [4]; nocodazole-treated (10 nM) morulae): 19 % of divisions
- change in mitosis duration (mouse embryos [5]; morulae): not in morulae
- change in mitosis duration (mouse embryos [5]; two-cell stage): extended mitosis at the two-cell stage

Compound: COC(=O)[C@H](CCCN/C(=N\C(=O)OCOC(=O)Cc1ccccc1)NC(=O)OCOC(=O)Cc1ccccc1)NS(=O)(=O)c1ccc(C)cc1 [proTAME]
- micronuclei per cell in blastocyst (mouse embryos [1]; 10 nM proTAME): 0.013 micronuclei per cell
- micronuclei per cell in blastocyst (mouse embryos [1]; "nM" proTAME (figure missing)): 0.012 micronuclei per cell
- blastocyst cell number (mouse embryos [1]; [7]): did not affect blastocyst cell number
- embryo development to blastocyst (mouse embryos [1]; [7]): permissive of development to blastocyst
- embryo development to blastocyst (mouse embryos [1]; proTAME 1-10 μM from the 2-cell stage): prevented embryo development to blastocyst
- extension of mitosis duration (mouse embryos [4]; 10 nM proTAME vs DMSO): 19%
- increase in duration of mitosis (mouse embryos [4]; 10 nM proTAME vs DMSO): ~10 min
- incidence of misaligned chromosomes at anaphase onset (mouse embryos [4]; 10 nM proTAME, control 28%, P=0.025): 16%
- duration of mitosis (mouse embryos [4]; 10 nM proTAME, morula stage, control 51.7±1.4, P<0.0001): 61.7 ± 2.3 min

Compound: AZ3146
- reversal of nocodazole-induced mitotic arrest (mouse embryos [3]; 100 nM nocodazole and 20 μM AZ3146): the arrest was reversible
- blastocyst cell numbers (mouse embryos [1]; AZ3146 (20 μM)): Neither treatment prevented development to blastocyst or altered cell numbers
- development to blastocyst (mouse embryos [1]; AZ3146 (20 μM)): Neither treatment prevented development to blastocyst
- number of micronuclei compared to controls (mouse embryos [1]; AZ3146-treated embryos): doubled
- duration of mitosis (mouse embryos [4]; 20 μM AZ3146, 16-32C transition, control 53±3 mins, P<0.0001): 33 ± 1 min
- chromosomes remaining misaligned at anaphase onset (mouse embryos [4]; 20 μM AZ3146, control 24%, P<0.0001): 63%

Compound: Mad2 MO: morpholino oligonucleotide against Mad2, 5′-GCTCTCGGGCGAGCTGCTGTGCCAT-3′ (Gene tools LLC) (all phosphorodiamidate morpholino (PMO))
- blastocyst cell numbers (mouse embryos [1]; Mad2 MO microinjected): Neither treatment prevented development to blastocyst or altered cell numbers
- development to blastocyst (mouse embryos [1]; Mad2 MO microinjected): Neither treatment prevented development to blastocyst
- number of micronuclei compared to controls (mouse embryos [1]; Mad2 MO-injected embryos vs Control MO): doubled
- timing of meiosis-I (polar body extrusion) (oocytes): characteristic acceleration of meiosis-I
